The results in this text go back to patent US20250235501A1, “Methods and Compositions for Treating or Preventing Neurological Injury or Neurological Disorders” (University of Connecticut, priority 2024, published 2025).

The subject of the test is MCAO mice. The test can be described thus: Middle cerebral artery occlusion (MCAO) ischemic stroke model. The class given is in vivo, mouse.
The mark [1] stands for this setting: 100 nmol/kg ip 15 mins before MCAO, 24 hrs after MCAO, vs TAT-SC-treated mice.
[2] abbreviates: 1 h MCAO, administered every 12 h, day 1, day 3, and day 7.
Setting [3] is: FIGS. 18C-18E, pre-MCAO administration i.p. 30 min before MCAO.
Where [4] appears, read: post-MCAO treatment, injected right before reopening of the MCA, WT mice.

On to “TAT-EE3: membrane permeable disrupting peptide, sequence YGRKKRRQRRREEDTDSSEEMLALAEE (SEQ ID NO: 4)”, for which, under setting [1], the infarct volume result is recorded as “significantly reduced” and the neurological behavior scores entry is reported as “improved”. In addition, under setting [2], the “ND scores, long-term MCAO (7 days)” value is “improved” and the “latency to fall time (rotarod test), long-term MCAO” value was “inhibited the reduction”. For the same substance, under setting [3], the infarct volume entry is “reduced” and the “neurological deficit (ND) score” value is given as “improved”. Under setting [4], the ND score entry is reported as “improved” and the infarct volume result is listed as “reduced”. Also, under “post-MCAO treatment, neuron-specific TRPM2 knockout mice”, the “protective effects in nM2KO mice” value was “did not produce further protective effects”.
